Patent US20240132449A1, “HETEROCYCLIC COMPOUNDS AND METHODS OF USE THEREOF” (1cBio, Inc., priority 2022, published 2024)
Where a name gives a salt, the structure may show the parent alone.

Columns and labels:
recombinant human PARP2 = recombinant human PARP2 (Homo sapiens, UniProt Q9UGN5); test: PARP2 fluorescence polarization binding assay; conditions: for IC50: binding IC50, GST-tagged PARP2 20 nM, PARPi-FL 3 nM; for inhibition at 10 µM: read-out: PARP2 % inh at 10 μM
Procedure: Compounds of the present disclosure were tested in a PARP2 fluorescence polarization binding assay at Pharmaron (Beijing, P.R. China). In this biochemical assay, binding of test compound to recombinant human PARP2 reduces the amount of binding of a fluorescent probe, and consequently reduces the detected level of fluorescence polarization. Test compound stock solutions were prepared in DMSO and then serially diluted into 10 concentrations by 3-fold dilution in a 384-well plate using a TECAN EVO200. Alternatively, a single concentration was prepared. 60 nL of each dilution was transferred to the plate using an Echo550 (Labcyte), and then 10 μL 40 nM GST-tagged PARP2 (BPS Bioscience, Cat #80502), diluted in assay buffer (50 mM Tris pH 8.0, 0.001% Triton X-100, 10 mM MgCl2, 150 mM NaCl), was added to the plate. After a centrifugation at 1000 rpm for 1 min, the assay plate was incubated for 30 min at RT. 10 μL 6 nM PARPi-FL (TOCRIS, Cat #6461), diluted using assay buffer, was then added to the plate. […] After a centrifugation at 1000 rpm for 1 min, the assay plate was incubated for 4 h at RT. Samples in each well were read using an Envision instrument (Perkin-Elmer; Ex=480 nm Em=FITC FP-P pol 535 nm & FITC FP-S pol 535 nm). […] Binding IC50 values were calculated using XLFit (equation 201: […])^D))), where A=bottom, B=top, C=IC50, and D=slope) with a floating top and bottom for curves.

[1] = tested on: DLD-1 wild-type colorectal adenocarcinoma cells; test: Cell viability assay (Cell Titer-Glo), DLD-1 wild-type; format: cell-based; conditions: Homo sapiens, DLD-1, 168 h, 7 days incubation; for inhibition at 10 µM: read-out: DLD-1 wild-type % inh at 10 μM; for IC50: 50 cells/well
Procedure: (§1) Compounds of the present disclosure were tested for their effects on the viability of cancer cells. DLD-1 wild-type and DLD-1 BRCA2(−/−) colorectal adenocarcinoma cells, an isogenic pair of cell lines differing in the presence and absence, respectively, of both BRCA2 alleles, were used. The cells were harvested during the logarithmic growth period, counted, and seeded at 50 cells/well for DLD-1 wild-type and 200 cells/well for DLD-1 BRCA2(−/−) in a 384-well cell culture plate. After seeding, cells were incubated at 37° C., 5% CO2 overnight. Cells were treated with serially diluted test compounds at 10 concentrations (e.g., from 1.5 nM-30 μM) for generation of dose response curves, or at a single concentration. The plate was further incubated for another 7 days in a humidified incubator at 37° C. and 5% CO2. Cell viability was assessed by luminescence measurement after addition of Cell Titer-Glo reagent (Promega, Madison, Wis.) according to the manufacturer's instructions. Cell viability IC50 values were calculated using XLFit, equation 201: y=A+((B−A)/(1+((x/C)^D))), where A=bottom, B=top, C=IC50, and D=slope. IC50 values are shown in Table B and are presented in ranges, in which “+++”<300 nM, 300 nM≤“++”<3000 nM, and “+”≥3000 nM. Values for percent inhibition at 10 μM are also shown in Table B and are presented in ranges, in which “***”≥67%, 33%≤“**”<67%, and “*”<33%. Effects of the test compounds on the viability of other cell lines such as MDA-MB-436, MDA-MB-231, SUM149PT, HCC1395, and UWB1.289 are determined in an analogous method.

[2] = tested on: DLD-1 BRCA2(−/−) colorectal adenocarcinoma cells; test: Cell viability assay (Cell Titer-Glo), DLD-1 BRCA2(−/−); format: cell-based; conditions: Homo sapiens, DLD-1, 168 h; 7 days incubation, 200 cells/well
Procedure: as §1

PARP1 = PARP1 (Homo sapiens, UniProt P09874); test: PARP1 fluorescence polarization binding assay; conditions: binding IC50, GST-tagged PARP1 20 nM, PARPi-FL 3 nM
Procedure: Compounds of the present disclosure were tested in a PARP1 fluorescence polarization binding assay at Pharmaron (Beijing, P.R.China). In this biochemical assay, binding of test compound to recombinant human PARP1 reduces the amount of binding of a fluorescent probe, and consequently reduces the detected level of fluorescence polarization. Test compound stock solutions were prepared in DMSO and then serially diluted into 10 concentrations by 3-fold dilution in a 384-well plate using a TECAN EVO200. 60 nL of each dilution was transferred to the plate using an Echo550 (Labcyte), and then 10 μL 40 nM GST-tagged PARP1 (BPS Bioscience, Cat #80501), diluted in assay buffer (50 mM Tris pH 8.0, 0.001% Triton X-100, 10 mM MgCl2, 150 mM NaCl), was added to the plate. After a centrifugation at 1000 rpm for 1 min, the assay plate was incubated for 30 min at RT. 10 μL 6 nM PARPi-FL (TOCRIS, Cat #6461), diluted using assay buffer, was then added to the plate. The final concentrations of PARP1 and PARPi-FL were 20 nM and 3 nM, respectively, in a total volume of 20 μL. After a centrifugation at 1000 rpm for 1 min, the assay plate was incubated for 4 h at RT. Samples in each well were read using an Envision instrument (Perkin-Elmer; Ex=480 nm Em=FITC FP-P pol 535 nm & FITC FP-S pol 535 nm). Percent inhibition was calculated from mP values using Inhibition (%)=[1−(mPc−mPL)/(mPH−mPL)]×100%, where mPc, mPL, and mPH are the mP values of test compound, Low controls, and High controls, respectively. Binding IC50 values were calculated using XLFit (equation 201: y=A+((B−A)/(1+((x/C)^D))), where A=bottom, B=top, C=IC50, and D=slope) with a floating top and bottom for curves. Binding IC50 values are shown in Table A and are presented in ranges, in which “+++”<100 nM, 100 nM≤“++”<3000 nM, and “+”≥3000 nM.

recombinant human PARP2, sequence (Q9UGN5 whole entry): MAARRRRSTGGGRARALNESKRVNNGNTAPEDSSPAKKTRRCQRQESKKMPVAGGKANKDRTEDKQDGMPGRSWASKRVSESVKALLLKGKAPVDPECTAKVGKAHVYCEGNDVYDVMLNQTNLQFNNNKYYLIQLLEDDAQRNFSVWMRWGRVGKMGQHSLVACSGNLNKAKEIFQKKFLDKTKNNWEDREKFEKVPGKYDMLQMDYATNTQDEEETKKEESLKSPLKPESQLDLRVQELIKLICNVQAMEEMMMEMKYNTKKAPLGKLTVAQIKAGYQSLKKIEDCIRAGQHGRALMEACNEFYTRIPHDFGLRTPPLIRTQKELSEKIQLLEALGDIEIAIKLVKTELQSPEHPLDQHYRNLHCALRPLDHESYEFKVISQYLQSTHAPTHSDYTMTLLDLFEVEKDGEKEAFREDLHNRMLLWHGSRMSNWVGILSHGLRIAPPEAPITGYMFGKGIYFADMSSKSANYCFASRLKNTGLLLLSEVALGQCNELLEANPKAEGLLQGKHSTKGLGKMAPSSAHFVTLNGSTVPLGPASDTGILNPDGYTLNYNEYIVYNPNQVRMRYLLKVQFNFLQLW
PARP1, sequence (P09874 whole entry): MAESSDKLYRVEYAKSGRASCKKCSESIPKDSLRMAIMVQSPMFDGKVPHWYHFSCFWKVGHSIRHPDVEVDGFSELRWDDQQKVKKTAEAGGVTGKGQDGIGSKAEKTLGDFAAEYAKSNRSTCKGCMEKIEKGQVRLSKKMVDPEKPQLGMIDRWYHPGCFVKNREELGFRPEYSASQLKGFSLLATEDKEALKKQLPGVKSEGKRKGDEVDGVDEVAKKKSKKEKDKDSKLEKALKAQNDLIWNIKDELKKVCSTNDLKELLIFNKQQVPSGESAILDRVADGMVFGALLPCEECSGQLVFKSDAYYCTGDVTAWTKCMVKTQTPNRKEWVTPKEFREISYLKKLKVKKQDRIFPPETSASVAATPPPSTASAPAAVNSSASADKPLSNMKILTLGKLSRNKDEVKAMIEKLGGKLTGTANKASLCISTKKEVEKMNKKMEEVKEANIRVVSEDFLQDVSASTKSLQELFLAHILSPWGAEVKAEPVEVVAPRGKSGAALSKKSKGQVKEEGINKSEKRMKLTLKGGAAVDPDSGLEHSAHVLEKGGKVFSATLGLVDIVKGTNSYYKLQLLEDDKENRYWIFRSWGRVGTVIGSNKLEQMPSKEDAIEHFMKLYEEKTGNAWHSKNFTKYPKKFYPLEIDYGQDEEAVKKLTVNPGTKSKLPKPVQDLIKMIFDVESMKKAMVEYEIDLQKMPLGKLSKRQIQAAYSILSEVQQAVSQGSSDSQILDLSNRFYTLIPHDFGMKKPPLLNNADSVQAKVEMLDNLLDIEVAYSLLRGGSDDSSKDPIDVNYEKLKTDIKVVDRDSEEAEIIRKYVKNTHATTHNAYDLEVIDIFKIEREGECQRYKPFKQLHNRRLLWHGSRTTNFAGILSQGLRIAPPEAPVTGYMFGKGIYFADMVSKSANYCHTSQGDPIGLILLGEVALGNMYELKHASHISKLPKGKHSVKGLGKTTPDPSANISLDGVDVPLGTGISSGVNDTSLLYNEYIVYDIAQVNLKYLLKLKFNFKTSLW

| SMILES | IC50 (recombinant human PARP2) [nM] | inhibition at 10 µM (recombinant human PARP2) [%] | inhibition at 10 µM [1] [%] | IC50 [1] [nM] | IC50 [2] [nM] | IC50 (PARP1) [nM] |
| --- | --- | --- | --- | --- | --- | --- |
| CCn1c(=O)[nH]c2cc(CN3CC4(C3)CN(c3ccc(C(=O)NC)nc3)C4)ccc2c1=O [Compound 100, 5-{6-[(3-ethyl-2,4-dioxo-1,2,3,4-tetrahydroquinazolin-7-yl)methyl]-2,6-diazaspiro[3.3]heptan-2-yl}-N-methylpyridine-2-carboxamide hemiformate] | > 3000 | 33 to 67 | < 33 | > 3000 | > 3000 | 100 to 3000 |
| CCn1c(=O)[nH]c2cc(C=C3CCN(c4ccc(C(=O)NC)nc4C)CC3)ccc2c1=S [Compound 507, 5-(4-((3-ethyl-2-oxo-4-thioxo-1,2,3,4-tetrahydroquinazolin-7-yl)methylene)piperidin-1-yl)-N,6-dimethylpicolinamide] | > 3000 | 33 to 67 | > 67 | > 3000 | > 3000 | < 100 |
| CNC(=O)c1ccc(N2CCN(Cc3ccc4c(=O)n(C5CC5)c(=O)[nH]c4c3)CC2)cn1 [Compound 5, 5-(4-((3-cyclopropyl-2,4-dioxo-1,2,3,4-tetrahydroquinazolin-7-yl)methyl)piperazin-1-yl)-N-methylpicolinamide] | > 3000 | 33 to 67 | < 33 | > 3000 | > 3000 | < 100 |
| CCn1c(=O)[nH]c2c(F)c(CN3CCN(c4ccc(C(=O)NC)nc4C)CC3)ccc2c1=S [Compound 184, 5-(4-((3-ethyl-8-fluoro-2-oxo-4-thioxo-1,2,3,4-tetrahydroquinazolin-7-yl)methyl)piperazin-1-yl)-N,6-dimethylpicolinamide] | > 3000 | 33 to 67 | 33 to 67 | > 3000 | < 300 | < 100 |
| CCC(=O)c1ccc(N2CCN(Cc3cc4[nH]c(=O)n(CC)c(=O)c4s3)CC2)c(C)n1 [Compound 326, 3-ethyl-6-((4-(2-methyl-6-propionylpyridin-3-yl)piperazin-1-yl)methyl) thieno[3,2-d]pyrimidine-2,4(1H,3H)-dione formate] | > 3000 | 33 to 67 | < 33 | > 3000 | > 3000 | < 100 |
| CCn1c(=O)[nH]c2cc(CN3CCN(c4cnc5c(NC)nccc5c4)CC3)sc2c1=O [Compound 360, 3-ethyl-6-((4-(8-(methylamino)-1,7-naphthyridin-3-yl)piperazin-1-yl)methyl)thieno[3,2-d]pyrimidine-2,4(1H,3H)-dione formate] | > 3000 | 33 to 67 | 33 to 67 | > 3000 | > 3000 | < 100 |
| CCn1c(=O)[nH]c2cc(CN3CCN(c4ccc(C(=O)NC)nc4C)CC3)c(C#N)cc2c1=S [Compound 505, 5-(4-((6-cyano-3-ethyl-2-oxo-4-thioxo-1,2,3,4-tetrahydroquinazolin-7-yl)methyl)piperazin-1-yl)-N,6-dimethylpicolinamide trifluoroacetate] | > 3000 | 33 to 67 | < 33 | > 3000 | 300 to 3000 | < 100 |
| CNC(=O)c1ccc(N2CCN(Cc3ccc4c(=O)n(C)c(=O)[nH]c4c3)CC2)cn1 [Compound 2] | > 3000 | 33 to 67 | < 33 | > 3000 | 300 to 3000 | < 100 |
| CCN1Cc2ccc(CN3CCN(c4ccc(C(=O)NC)nc4C)CC3)cc2NC1=O [Compound 202, 5-{4-[(3-ethyl-2-oxo-1,4-dihydroquinazolin-7-yl)methyl]piperazin-1-yl}-N,6-dimethylpyridine-2-carboxamide] | – | 33 to 67 | < 33 | > 3000 | < 300 | < 100 |
| CCN1Cc2ccc(CN3CCN(c4ccc(F)cc4F)CC3)cc2NC1=O [Compound 225, 7-{[4-(2,4-difluorophenyl)piperazin-1-yl]methyl}-3-ethyl-1,4-dihydroquinazolin-2-one] | – | 33 to 67 | < 33 | > 3000 | > 3000 | < 100 |
| CCn1c(=O)[nH]c2cc(CN3CCC(c4ccc(C(=O)NC)nc4C)CC3)ccc2c1=S [Compound 498, 5-(1-((3-ethyl-2-oxo-4-thioxo-1,2,3,4-tetrahydroquinazolin-7-yl)methyl)piperidin-4-yl)-N,6-dimethylpicolinamide formate] | > 3000 | 33 to 67 | 33 to 67 | > 3000 | > 3000 | < 100 |
| CCn1c(=O)[nH]c2cc(CN3CCN4c5ccc(C(=O)NC)nc5OC[C@H]4C3)sc2c1=O [Compound 524, (R)-3-((3-ethyl-2,4-dioxo-1,2,3,4-tetrahydrothieno[3,2-d]pyrimidin-6-yl)methyl)-N-methyl-1,2,3,4,4a,5-hexahydropyrazino[1,2-d]pyrido[2,3-b][1,4]oxazine-8-carboxamide] | > 3000 | 33 to 67 | < 33 | – | > 3000 | < 100 |
| CCn1c(=O)[nH]c2cc(CN3CCN(c4ccc(C(=O)NC)cc4F)CC3)sc2c1=O [Compound 232] | > 3000 | 33 to 67 | < 33 | > 3000 | > 3000 | < 100 |
| CCn1c(=O)[nH]c2sc(CN3CCN(c4ccc(C(=O)NC)nc4)CC3)cc2c1=O [Compound 60, 5-(4-((3-ethyl-2,4-dioxo-1,2,3,4-tetrahydrothieno[2,3-d]pyrimidin-6-yl)methyl)piperazin-1-yl)-N-methylpicolinamide formate] | – | 33 to 67 | < 33 | – | > 3000 | 100 to 3000 |
